# Measured values from article PMC12278462, “Site-selective arylations of nature-inspired flavonoids or steroidal phenols via C—H or O—H activation” (Journal of Enzyme Inhibition and Medicinal Chemistry, 2025).
# Read-outs that look alike come from different tables or passages of the source.
# Assays:
# [1] = test system: NIH/3T3 mouse fibroblast cell line; assay: MTT assay, tumour selectivity on non-cancerous fibroblasts; format: cell-based; details: for inhibition at 10 µM: NIH3T3, 10 µM; for inhibition at 30 µM: NIH3T3, 30 µM; for IC50: read-out: calculated IC50 NIH/3T3
# Method: (§1) We evaluated the cytotoxic activity of the newly synthesised arylated compounds 13–17 by the MTT assay[37] on a panel of human adherent cancer cell lines. The panel included breast (MCF-7 and MDA MB-231) and cervical (HeLa, SiHa and C33A) cancer cell lines differing in receptorial or HPV status. Tumour selectivity was determined on the NIH/3T3 mouse fibroblast cell line.
# (§2) Briefly, the panels of breast and cervical cancerous cell lines, differing by their receptorial and HPV status were used, precisely MCF-7 (ER, PR and HER2 positive) and MDA-MB-231 (TNBC) breast carcinoma and HeLa (HPV18+), SiHa (HPV16+), C33A (HPV-) cervical carcinoma cells. Non-cancerous NIH/3T3 mouse fibroblast cell line was used for selectivity study. MCF-7, MDA-MB-231, Hela and NIH/3T3 cell lines were purchased from ECACC (European Collection of Cell Cultures, Salisbury, UK), while SiHa and C33A from ATCC (American Tissue Culture Collection, LGC Standards GmbH, Wesel, Germany). Cells were maintained in Eagle's Minimum Essential Medium (EMEM, Capricorn Scientific GmbH, Ebsdorfergrund, Germany) supplemented with 10% heat-inactivated fetal bovine serum (FBS), 1% non-essential amino acids (NEAA), and 1% antibiotic-antimycotic mixture (penicillin–streptomycin). The cells were maintained at 37 °C in a humidified atmosphere containing 5% CO2.
# (§3) For measurements cells were seeded for 96-well plates at a density of 5 000/well, except for C33A, which was seeded in 10 000cells for each well. After overnight standing cells were treated with 10 and 30 µM solutions for screening and increasing concentrations (0.1-30.0 µM) of the test compounds were used for concentration-response curves. After incubation for 72 hours under cell culturing condition 5 mg/ml MTT (3-(4,5-[…])-2,5-diphenyl-2H-tetrazolium bromide) solution was added for another 4 h. The precipitated formazan crystals were solubilized in DMSO and the absorbance was measured at 545 nm with a microplate reader (BMG Labtech, Ortenberg, Germany). Wells with untreated cells were utilized as control, and inhibition % were calculated by GraphPad Prism v 9.0 software (GraphPad Software, San Diego, CA, USA). If the growth-inhibition exceeded 70% at 30 µM concentration during the screening concentration-response curves were fitted and IC50 values were calculated by GraphPad Prism v 9.0. The experiments were performed with five parallel wells for each experimental condition and repeated at least twice.
# HeLa = assay: MTT antiproliferative assay, HeLa; format: cell-based, human; details: 72 h; for IC50: read-out: calculated IC50 HeLa
# Method: as §1, §2, §3
# MDA-MB-231 = assay: MTT antiproliferative assay, MDA-MB-231; format: cell-based, human; details: for inhibition at 10 µM: MDA-MB-231, 10 µM; for inhibition at 30 µM: MDA-MB-231, 30 µM; for IC50: read-out: calculated IC50 MDA-MB-231
# Method: as §1, §2, §3
# C33A = assay: MTT antiproliferative assay, C33A; format: cell-based, human; details: 72 h; for IC50: read-out: calculated IC50 C33A
# Method: as §1, §2, §3
# MCF-7 = assay: MTT antiproliferative assay, MCF-7; format: cell-based, human; details: for inhibition at 10 µM: MCF7, 10 µM; for inhibition at 30 µM: MCF7, 30 µM; for IC50: read-out: calculated IC50 MCF-7
# Method: as §1, §2, §3
# SiHa = assay: MTT antiproliferative assay, SiHa; format: cell-based, human; details: 72 h; for IC50: read-out: calculated IC50 SiHa
# Method: as §1, §2, §3
compound,measurement,setting,value
"CCCCOC1(c2cc(=O)c3c(Oc4ccccc4)cc(O)cc3o2)C=CC(=O)C=C1 [17a, 2-(1-Butoxy-4-oxocyclohexa-2,5-dienyl)-7-hydroxy-5-phenoxy-chromen-4-one]",inhibition at 10 µM,"[1]; Mus musculus, 72 h",94.2%
same,inhibition at 30 µM,"[1]; Mus musculus, 72 h",98.7%
same,IC50,"[1]; Mus musculus, NIH3T3, 72 h",2.33 µM
same,inhibition at 10 µM,"HeLa; Homo sapiens, HeLa",93.6%
same,inhibition at 30 µM,"HeLa; Homo sapiens, HeLa",94.3%
same,IC50,"HeLa; Homo sapiens, HeLa",1.16 µM
same,inhibition at 10 µM,"MDA-MB-231; Homo sapiens, 72 h",95.7%
same,inhibition at 30 µM,"MDA-MB-231; Homo sapiens, 72 h",96.9%
same,IC50,"MDA-MB-231; Homo sapiens, MDA-MB-231, 72 h",0.72 µM
same,inhibition at 10 µM,"C33A; Homo sapiens, C-33-A",98.1%
same,inhibition at 30 µM,"C33A; Homo sapiens, C-33-A",98.5%
same,IC50,"C33A; Homo sapiens, C-33-A",0.43 µM
same,inhibition at 10 µM,"MCF-7; Homo sapiens, 72 h",93.1%
same,inhibition at 30 µM,"MCF-7; Homo sapiens, 72 h",93.7%
same,IC50,"MCF-7; Homo sapiens, MCF7, 72 h",0.97 µM
same,inhibition at 10 µM,"SiHa; Homo sapiens, SiHa",86.2%
same,inhibition at 30 µM,"SiHa; Homo sapiens, SiHa",95%
same,IC50,"SiHa; Homo sapiens, SiHa",1.29 µM
"CCCCOC1(c2cc(=O)c3c(Oc4ccc(Br)cc4)cc(O)cc3o2)C=CC(=O)C=C1 [17b, 5-(4-Bromophenoxy)-2-(1-butoxy-4-oxocyclohexa-2,5-dienyl)-7-hydroxy-chromen-4-one]",inhibition at 10 µM,"[1]; Mus musculus, 72 h",97.5%
same,inhibition at 30 µM,"[1]; Mus musculus, 72 h",98.6%
same,IC50,"[1]; Mus musculus, NIH3T3, 72 h",1.61 µM
same,inhibition at 10 µM,"HeLa; Homo sapiens, HeLa",97%
same,inhibition at 30 µM,"HeLa; Homo sapiens, HeLa",97.7%
same,IC50,"HeLa; Homo sapiens, HeLa",1.09 µM
same,inhibition at 10 µM,"MDA-MB-231; Homo sapiens, 72 h",97%
same,inhibition at 30 µM,"MDA-MB-231; Homo sapiens, 72 h",97.9%
same,IC50,"MDA-MB-231; Homo sapiens, MDA-MB-231, 72 h",0.73 µM
same,inhibition at 10 µM,"C33A; Homo sapiens, C-33-A",97.7%
same,inhibition at 30 µM,"C33A; Homo sapiens, C-33-A",97.8%
same,IC50,"C33A; Homo sapiens, C-33-A",0.52 µM
same,inhibition at 10 µM,"MCF-7; Homo sapiens, 72 h",97.4%
same,inhibition at 30 µM,"MCF-7; Homo sapiens, 72 h",98.4%
same,IC50,"MCF-7; Homo sapiens, MCF7, 72 h",1.15 µM
same,inhibition at 10 µM,"SiHa; Homo sapiens, SiHa",84.5%
same,inhibition at 30 µM,"SiHa; Homo sapiens, SiHa",93.8%
same,IC50,"SiHa; Homo sapiens, SiHa",1.39 µM
"N.N.[Cl][Pt][Cl] [Cisplatin, reference compound]",IC50,[1]; 72 h,4.7 µM
same,IC50,HeLa,12.4 µM
same,IC50,MDA-MB-231; 72 h,19.1 µM
same,IC50,C33A,3.7 µM
same,IC50,MCF-7; 72 h,5.8 µM
same,IC50,SiHa,7.8 µM
"C[C@@]12CC[C@@H]3c4c(cc(OCc5cn(Cc6ccccc6)nn5)cc4-c4ccc(Br)cc4)CC[C@H]3[C@@H]1CCC2=O [compound 16, 3-[{1-Benzyl-1H-1,2,3-triazol-4-yl}methoxy]-1-(4-bromophenyl)-13a-estra-1,3,5 (10)-trien-17-one]",inhibition at 10 µM,"[1]; Mus musculus, 72 h",< 10%
same,inhibition at 30 µM,"[1]; Mus musculus, 72 h",11.2%
same,inhibition at 10 µM,"HeLa; Homo sapiens, HeLa",22.4%
same,inhibition at 30 µM,"HeLa; Homo sapiens, HeLa",33.1%
same,inhibition at 10 µM,"MDA-MB-231; Homo sapiens, 72 h",< 10%
same,inhibition at 30 µM,"MDA-MB-231; Homo sapiens, 72 h",< 10%
same,inhibition at 10 µM,"C33A; Homo sapiens, C-33-A",< 10%
same,inhibition at 30 µM,"C33A; Homo sapiens, C-33-A",< 10%
same,inhibition at 10 µM,"MCF-7; Homo sapiens, 72 h",< 10%
same,inhibition at 30 µM,"MCF-7; Homo sapiens, 72 h",< 10%
same,inhibition at 10 µM,"SiHa; Homo sapiens, SiHa",< 10%
same,inhibition at 30 µM,"SiHa; Homo sapiens, SiHa",10.4%
